Test results from patent publication US20180099931A1 (AbbVie S.à.r.l., priority 2016, published 2018).
Read-outs that look alike come from different tables or passages of the source.

Target: T1, F508delCFTR (Homo sapiens, UniProt P13569, DEL508-508)
T1 construct: expressed in transfected cells; host or cells: CFBE41o- human lung-derived epithelial cells (CFBE4lo-F508delCFTR-HRP), doxycycline-inducible
Assay: Cell Surface Expression-Horse Radish Peroxidase (CSE-HRP) Assay;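 as to Maximum % activity (with co-corrector): co-corrector and positive control are both the same reference corrector at 2 µM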;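 as to Maximum % activity (without co-corrector): percent of the 2 µM on-plate positive control corrector response above DMSO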
Type: cell-based
Settings: for Maximum % activity (with co-corrector): with co-corrector (2 μM); for Maximum % activity (with co-corrector) / Emax: maximum at any tested concentration, normalized to on-plate positive control; for Emax: without co-corrector, read-out: Maximum % activity (without co-corrector)

[1] = test compound without co-corrector, read-out: EC50 (without co-corrector)
[2] = with co-corrector (2 μM of 3-[(2R,4R)-4-({[1-(2,2-difluoro-1,3-benzodioxol-5-yl)cyclopropyl]carbonyl}amino)-7-methoxy-3,4-dihydro-2H-chromen-2-yl]benzoic acid), read-out: EC50 (with co-corrector)

T1 sequence (P13569 with tags, fused parts or gaps DEL508-508): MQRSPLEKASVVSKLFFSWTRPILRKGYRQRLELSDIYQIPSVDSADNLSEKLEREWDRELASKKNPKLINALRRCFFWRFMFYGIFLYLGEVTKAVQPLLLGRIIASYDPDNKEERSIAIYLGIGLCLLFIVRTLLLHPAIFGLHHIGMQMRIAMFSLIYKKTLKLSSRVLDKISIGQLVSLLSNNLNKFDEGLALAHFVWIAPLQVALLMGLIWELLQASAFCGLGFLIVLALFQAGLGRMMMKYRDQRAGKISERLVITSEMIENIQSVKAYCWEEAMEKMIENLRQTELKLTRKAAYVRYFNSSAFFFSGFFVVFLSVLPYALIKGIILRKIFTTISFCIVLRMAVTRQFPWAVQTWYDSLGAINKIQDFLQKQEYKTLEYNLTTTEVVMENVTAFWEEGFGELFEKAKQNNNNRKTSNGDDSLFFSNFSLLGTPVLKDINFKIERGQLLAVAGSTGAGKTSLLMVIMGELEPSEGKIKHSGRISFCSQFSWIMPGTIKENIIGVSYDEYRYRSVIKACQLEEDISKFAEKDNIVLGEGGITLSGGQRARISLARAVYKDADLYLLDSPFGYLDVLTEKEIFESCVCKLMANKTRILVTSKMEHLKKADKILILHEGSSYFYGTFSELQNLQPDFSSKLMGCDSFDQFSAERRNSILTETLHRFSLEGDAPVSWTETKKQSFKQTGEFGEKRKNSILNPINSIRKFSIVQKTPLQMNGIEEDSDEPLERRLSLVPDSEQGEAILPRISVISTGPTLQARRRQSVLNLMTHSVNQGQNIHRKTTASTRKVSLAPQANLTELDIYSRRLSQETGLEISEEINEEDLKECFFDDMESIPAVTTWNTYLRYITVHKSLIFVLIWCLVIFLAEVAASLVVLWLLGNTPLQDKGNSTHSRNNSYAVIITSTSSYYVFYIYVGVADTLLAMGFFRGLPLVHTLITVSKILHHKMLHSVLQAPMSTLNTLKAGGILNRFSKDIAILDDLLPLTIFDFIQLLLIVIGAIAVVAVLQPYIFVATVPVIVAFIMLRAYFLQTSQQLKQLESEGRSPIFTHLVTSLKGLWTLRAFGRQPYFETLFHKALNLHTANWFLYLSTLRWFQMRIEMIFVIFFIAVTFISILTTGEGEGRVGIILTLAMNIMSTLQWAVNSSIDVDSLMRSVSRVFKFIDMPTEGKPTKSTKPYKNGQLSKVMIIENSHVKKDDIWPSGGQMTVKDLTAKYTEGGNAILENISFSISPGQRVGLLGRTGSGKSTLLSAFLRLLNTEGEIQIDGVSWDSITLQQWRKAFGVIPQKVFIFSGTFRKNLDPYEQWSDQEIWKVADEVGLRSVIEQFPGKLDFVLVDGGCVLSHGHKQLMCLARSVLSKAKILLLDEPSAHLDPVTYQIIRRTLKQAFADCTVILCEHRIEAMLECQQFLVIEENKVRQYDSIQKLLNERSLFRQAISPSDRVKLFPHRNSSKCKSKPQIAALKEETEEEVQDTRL

SMILES | EC50 [1] [µM] | EC50 [2] [µM] | Maximum % activity (with co-corrector) | Emax [%]
COc1ncc(C2CCC2)cc1CN(C)[C@H]1[C@H](C(C)(C)C)[C@@H](C(=O)O)N(C(=O)[C@@H]2CCCCO2)[C@H]1c1ccccc1C(C)C [Example 119, (2S,3S,4S,5S)-3-tert-butyl-4-{[(5-cyclobutyl-2-methoxypyridin-3-yl)methyl](methyl)amino}-1-[(2S)-oxane-2-carbonyl]-5-[2-(propan-2-yl)phenyl]pyrrolidine-2-carboxylic acid] | < 1 | < 1 | +++ (≥350) | > 200
COc1ccc(C(F)(F)F)cc1CN[C@H]1[C@H](C(C)(C)C)[C@@H](C(=O)O)N(C(=O)[C@H](OC)c2ccccc2)[C@H]1c1ccccc1 [Example I-20] | 1 to 10 | < 1 | +++ (≥350) | > 200
COc1ccc(C(F)(F)F)cc1CN[C@H]1[C@H](C(C)(C)C)[C@@H](C(=O)O)N(C(=O)[C@@H](OC)c2ccccc2)[C@H]1c1ccccc1 [Example I-34] | 1 to 10 | 1 to 10 | +++ (≥350) | > 200
COc1cc(C(F)(F)F)ccc1CN[C@H]1[C@H](C(C)(C)C)[C@@H](C(=O)O)N(C(=O)C2CCCCC2)[C@H]1c1cccnc1OC [Example I-39] | 1 to 10 | < 1 | +++ (≥350) | 100 to 200
COc1cc2ccccc2cc1CN[C@H]1[C@H](C(C)(C)C)[C@@H](C(=O)O)N(C(=O)C2CCCCC2)[C@H]1c1ccccc1 [Example I-42] | 1 to 10 | < 1 | +++ (≥350) | > 200
COc1cc(C(F)(F)F)ccc1CN[C@H]1[C@H](C(C)(C)C)[C@@H](C(=O)O)N(C(=O)C2CCCCC2)[C@H]1c1ccccc1OC(F)F [Example I-43] | 1 to 10 | 1 to 10 | +++ (≥350) | < 100
COc1cc(C(F)(F)F)ccc1CN[C@H]1[C@H](C(C)(C)C)[C@@H](C(=O)O)N(C(=O)C2CCCCC2)[C@H]1c1cccnc1N(C)C [Example I-44] | 1 to 10 | 1 to 10 | +++ (≥350) | 100 to 200
COc1cc(C(F)(F)F)ccc1CN[C@@H]1[C@@H](C(C)(C)C)[C@H](C(=O)O)N(C(=O)[C@H](C)c2ccccc2)[C@@H]1c1ccccc1 [Example I-45] | > 10 | > 10 | + (<150) | < 100
CC(C)(C)[C@H]1[C@H](NCc2cc3ccccc3o2)[C@H](c2ccccc2)N(C(=O)C2CCCCC2)[C@@H]1C(=O)O [Example I-46] | 1 to 10 | 1 to 10 | ++ (≥150 and <350) | < 100
CC(C)(C)[C@H]1[C@H](NCc2ccc3c(c2)OCCO3)[C@H](c2ccccc2)N(C(=O)C2CCCCC2)[C@@H]1C(=O)O [Example I-47] | > 10 | 1 to 10 | ++ (≥150 and <350) | < 100
COc1ccc(-c2ccccc2)cc1CN[C@H]1[C@H](C(C)(C)C)[C@@H](C(=O)O)N(C(=O)C2CCCCC2)[C@H]1c1ccccc1 [Example I-48] | < 1 | < 1 | +++ (≥350) | > 200
COc1cc2c(cc1CN[C@H]1[C@H](C(C)(C)C)[C@@H](C(=O)O)N(C(=O)C3CCCCC3)[C@H]1c1ccccc1)CCC2 [Example I-49] | 1 to 10 | < 1 | +++ (≥350) | > 200
CC(C)(C)[C@H]1[C@H](NCc2ccc(F)cc2OCC2CC2)[C@H](c2ccccc2)N(C(=O)C2CCCCC2)[C@@H]1C(=O)O [Example I-50] | 1 to 10 | 1 to 10 | ++ (≥150 and <350) | < 100
CC(C)(C)[C@H]1[C@H](NCc2cc(Cl)ccc2O)[C@H](c2ccccc2)N(C(=O)C2CCCCC2)[C@@H]1C(=O)O [Example I-51] | > 10 | 1 to 10 | ++ (≥150 and <350) | < 100
COc1ccc(C(C)(C)C)cc1CN[C@H]1[C@H](C(C)(C)C)[C@@H](C(=O)O)N(C(=O)C2CCCCC2)[C@H]1c1cccnc1N(C)C [Example I-52] | < 1 | < 1 | +++ (≥350) | > 200
COc1ccc(C(F)(F)F)cc1CN[C@H]1[C@H](C(C)(C)C)[C@@H](C(=O)O)N(C(=O)C2CCCCC2)[C@H]1c1cccnc1N(C)C [Example I-53] | 1 to 10 | 1 to 10 | +++ (≥350) | 100 to 200
CC(C)c1cc(C(F)(F)F)cc(N[C@H]2[C@H](C(C)(C)C)[C@@H](C(=O)O)N(C(=O)C3CCCCC3)[C@H]2c2ccccc2)n1 [Example I-54] | 1 to 10 | 1 to 10 | ++ (≥150 and <350) | < 100

SMILES | EC50 [1] [µM] | EC50 [2] [µM] | Maximum % activity (with co-corrector) | Emax [%]
COc1c(C#N)c(N[C@H]2[C@H](C(C)(C)C)[C@@H](C(=O)O)N(C(=O)C3CCCCC3)[C@H]2c2ccccc2)nc2ccccc12 [Example I-55] | 1 to 10 | 1 to 10 | +++ (≥350) | < 100
CC(C)(C)[C@H]1[C@H](Nc2cccc(C(F)(F)F)c2)[C@H](c2ccccc2)N(C(=O)C2CCCCC2)[C@@H]1C(=O)O [Example I-56] | < 1 | < 1 | +++ (≥350) | < 100
COc1ccc(Cl)cc1CN[C@H]1[C@H](C(C)(C)C)[C@@H](C(=O)O)N(C(=O)C2CCCCC2)[C@H]1c1ccccc1OC [Example I-57] | 1 to 10 | 1 to 10 | +++ (≥350) | 100 to 200
COc1ccc(C(C)(C)C)cc1CN[C@H]1[C@H](C(C)(C)C)[C@@H](C(=O)O)N(C(=O)[C@H]2CCC[C@H](OC)C2)[C@H]1c1ccccc1 [Example I-58] | 1 to 10 | 1 to 10 | +++ (≥350) | > 200
COc1ccc(C(F)(F)F)cc1CN[C@H]1[C@H](C(C)(C)C)[C@@H](C(=O)O)N(C(=O)[C@@H]2CCC[C@@H](OC)C2)[C@H]1c1ccccc1 [Example I-59] | 1 to 10 | 1 to 10 | +++ (≥350) | > 200
COc1ccc(C(F)(F)F)cc1CN[C@H]1[C@H](C(C)(C)C)[C@@H](C(=O)O)N(C(=O)[C@H]2CCC[C@H](OC)C2)[C@H]1c1ccccc1 [Example I-60] | 1 to 10 | 1 to 10 | +++ (≥350) | > 200
COc1ccc(C(C)(C)C)cc1CN[C@H]1[C@H](C(C)(C)OC)[C@@H](C(=O)O)N(C(=O)C2CCCCC2)[C@H]1c1ccccc1 [Example I-61] | 1 to 10 | < 1 | +++ (≥350) | > 200
COc1cc(C(C)(C)C)ccc1CN[C@H]1[C@H](C(C)(C)OC)[C@@H](C(=O)O)N(C(=O)C2CCCCC2)[C@H]1c1ccccc1 [Example I-62] | 1 to 10 | 1 to 10 | +++ (≥350) | 100 to 200
COc1ccc(C(F)(F)F)cc1CN[C@H]1[C@H](C(C)(C)OC)[C@@H](C(=O)O)N(C(=O)C2CCCCC2)[C@H]1c1ccccc1 [Example I-63] | 1 to 10 | < 1 | +++ (≥350) | > 200
COc1ccc(C(C)(C)C)cc1CN[C@H]1[C@H](C(C)(C)C)[C@@H](C(=O)O)N(C(=O)c2cccnc2)[C@H]1c1ccccc1 [Example I-64] | 1 to 10 | 1 to 10 | +++ (≥350) | < 100
COc1ccc(C(C)(C)C)cc1CN[C@H]1[C@H](C(C)(C)C)[C@@H](C(=O)O)N(C(=O)c2ccccc2)[C@H]1c1ccccc1 [Example I-65] | 1 to 10 | 1 to 10 | +++ (≥350) | 100 to 200
COc1ccc(C(C)(C)C)cc1CN[C@H]1[C@H](C(C)(C)C)[C@@H](C(=O)O)N(C(=O)C2CCCS(=O)(=O)C2)[C@H]1c1ccccc1 (stereo partly shown) [Example I-66] | 1 to 10 | 1 to 10 | +++ (≥350) | > 200
CC(C)(C)[C@H]1[C@H](Nc2cc(C(F)(F)F)cc(C3CCC3)n2)[C@H](c2ccccc2)N(C(=O)C2CCCCC2)[C@@H]1C(=O)O [Example I-67] | 1 to 10 | 1 to 10 | +++ (≥350) | < 100
COc1ccc(C2CCC2)cc1CN[C@H]1[C@H](C(C)(C)C)[C@@H](C(=O)O)N(C(=O)C2CCCCC2)[C@H]1c1ccccc1 [Example I-68] | < 1 | < 1 | +++ (≥350) | > 200
COc1ncc(Cc2ccccc2)cc1CN[C@H]1[C@H](C(C)(C)C)[C@@H](C(=O)O)N(C(=O)C2CCCCC2)[C@H]1c1ccccc1 [Example I-69] | < 1 | < 1 | +++ (≥350) | 100 to 200
CCC(C)c1cnc(OC)c(CN[C@H]2[C@H](C(C)(C)C)[C@@H](C(=O)O)N(C(=O)C3CCCCC3)[C@H]2c2ccccc2)c1 (stereo partly shown) [Example I-70] | 1 to 10 | < 1 | +++ (≥350) | > 200
COc1ncc(CC2CCCCC2)cc1CN[C@H]1[C@H](C(C)(C)C)[C@@H](C(=O)O)N(C(=O)C2CCCCC2)[C@H]1c1ccccc1 [Example I-71] | < 1 | < 1 | +++ (≥350) | 100 to 200
